# Measured values taken from ChEMBL document CHEMBL3392969, “SAR156497, an exquisitely selective inhibitor of aurora kinases” (J Med Chem, 2015).
# Assays:
# Aurora kinase B = Aurora kinase B (Homo sapiens, UniProt Q96GD4)
# Description: Inhibition of poly-histidine tagged full length recombinant aurora B (unknown origin) assessed as phosphorylation of NuMA-histidine substrate by scintillation counting analysis
# HeLa [1] = test: cells; settings: Homo sapiens
# Description: (§1) Antiproliferative activity against human HeLa cells assessed as 14C-thymidine incorporation by Micro-Beta radioactivity counting analysis
# in vitro [2] = settings: human, liver microsomes
# Description: Metabolic stability human liver microsomes assessed as stability at 5 uM by LC/MS-MS analysis
# in vitro [3] = settings: mouse, liver microsomes
# Description: Metabolic stability mouse liver microsomes assessed as stability at 5 uM by LC/MS-MS analysis
# Cytochrome P450 3A4 [4] = biological target: T1, Cytochrome P450 3A4 (Homo sapiens, UniProt P08684)
# Description: Inhibition of human recombinant CYP3A4 co-expressed with human P450 reductase/human b5 reductase using 7-benzyloxyquinoline substrate
# HeLa [5] = system: HeLa
# Description: as §1
# Aurora kinase C = biological target: T2, Aurora kinase C (Homo sapiens, UniProt Q9UQB9)
# T2 sequence (Q9UQB9 whole entry): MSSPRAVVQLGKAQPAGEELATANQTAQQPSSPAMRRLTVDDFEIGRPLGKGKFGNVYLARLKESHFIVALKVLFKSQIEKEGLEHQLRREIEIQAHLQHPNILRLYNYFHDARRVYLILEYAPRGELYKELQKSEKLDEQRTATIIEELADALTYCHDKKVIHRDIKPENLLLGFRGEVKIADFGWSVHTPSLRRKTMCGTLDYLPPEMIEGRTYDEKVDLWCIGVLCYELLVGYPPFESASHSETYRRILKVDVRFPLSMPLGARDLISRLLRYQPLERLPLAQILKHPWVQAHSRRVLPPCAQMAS
# Description: Inhibition of poly-histidine tagged full length recombinant aurora C (unknown origin) assessed as phosphorylation of NuMA-histidine substrate by scintillation counting analysis
# Cytochrome P450 3A4 [6] = biological target: T1, Cytochrome P450 3A4; remark: listed apart in the source
# Description: Inhibition of human recombinant CYP3A4 in liver microsomes by mechanism based inhibition assay
# PBMC = test: cells; settings: Homo sapiens, 96 h
# Description: Cytotoxicity against human hematological tumor PBMC assessed as viability after 96 hrs by MTS assay
# in vivo [7] = settings: mouse, po
# Description: Oral bioavailability in mouse
# in vivo [8] = settings: mouse
# in vivo [9] = settings: mouse; remark: listed apart in the source
# Description: Volume of distribution in mouse
# in vitro [10] = settings: human, Caco-2
# Description: Permeability across human Caco2 cells
# [11] = Plasma concentration in human HCT116 cells xenografted in SCID mouse at 50 mg/kg/day, sc infusion after 8 hrs
# [12] = Antitumor activity against human HCT116 cells xenografted in SCID mouse assessed as tumor growth at 25 mg/kg, sc after 24 hrs infusion schedule; settings: route subcutaneous
# [13] = Antitumor activity against human HCT116 cells xenografted in SCID mouse assessed as tumor growth at 25 mg/kg/day, sc after 48 hrs infusion schedule; settings: route subcutaneous
# [14] = Antitumor activity against human HCT116 cells xenografted in SCID mouse assessed as decrease in […] positive cells at 25 mg/kg, sc after 24 hrs infusion schedule; settings: HCT-116, sc
# [15] = Antitumor activity against human HCT116 cells xenografted in SCID mouse assessed as decrease in […] positive cells at 50 mg/kg, sc after 24 hrs infusion schedule; settings: HCT-116, sc
# [16] = Antitumor activity against human HCT116 cells xenografted in SCID mouse assessed as decrease in […] positive cells at 25 mg/kg/day, sc after 48 hrs infusion schedule; settings: HCT-116, sc
# Chain of Aurora kinase B (Q96GD4 whole entry): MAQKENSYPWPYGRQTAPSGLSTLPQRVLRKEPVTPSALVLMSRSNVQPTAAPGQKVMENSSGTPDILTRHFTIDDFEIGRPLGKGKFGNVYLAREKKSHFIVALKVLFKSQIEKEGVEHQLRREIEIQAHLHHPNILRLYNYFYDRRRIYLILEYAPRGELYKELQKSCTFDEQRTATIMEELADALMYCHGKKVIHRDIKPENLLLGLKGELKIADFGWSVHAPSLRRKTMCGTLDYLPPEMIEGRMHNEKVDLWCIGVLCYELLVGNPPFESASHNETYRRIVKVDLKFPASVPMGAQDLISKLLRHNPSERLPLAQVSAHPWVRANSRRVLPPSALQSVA
# T1 sequence (P08684 whole entry): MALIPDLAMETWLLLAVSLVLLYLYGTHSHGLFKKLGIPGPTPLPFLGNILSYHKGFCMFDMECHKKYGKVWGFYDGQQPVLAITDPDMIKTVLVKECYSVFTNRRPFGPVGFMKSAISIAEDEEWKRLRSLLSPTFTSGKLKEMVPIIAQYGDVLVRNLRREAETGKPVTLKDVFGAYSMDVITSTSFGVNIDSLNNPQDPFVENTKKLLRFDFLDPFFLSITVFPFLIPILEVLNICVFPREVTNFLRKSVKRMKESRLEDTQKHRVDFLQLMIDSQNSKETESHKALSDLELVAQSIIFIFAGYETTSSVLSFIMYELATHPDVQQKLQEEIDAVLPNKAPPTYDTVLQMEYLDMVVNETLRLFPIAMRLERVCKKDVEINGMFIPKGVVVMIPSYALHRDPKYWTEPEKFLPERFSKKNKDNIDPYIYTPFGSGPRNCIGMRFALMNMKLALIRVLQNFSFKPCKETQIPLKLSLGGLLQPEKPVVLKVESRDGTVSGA
compound,measurement,setting,value
CCOC(=O)c1[nH]cc2c1NC1=C(C(=O)CCC1)C2c1ccc(Sc2nc3ccccc3[nH]2)s1 (racemic),IC50,Aurora kinase B,180 nM
same,IC50,HeLa [1],4600 nM
CCOC(=O)c1[nH]cc2c1NC1=C(C(=O)CN(CC)C1)C2c1ccc(Sc2nc3ccccc3[nH]2)o1 (racemic),IC50,Aurora kinase B,6 nM
same,remaining at 5 µM,in vitro [2],65%
same,remaining at 5 µM,in vitro [3],99%
CCOC(=O)c1[nH]cc2c1NC1=C(C(=O)CCC1)C2c1cccc(Oc2nc3ccccc3[nH]2)c1 (racemic),IC50,Aurora kinase B,12 nM
same,IC50,HeLa [1],200 nM
"COC(=O)c1[nH]cc2c1NC1=C(C(=O)CCC1)C2c1ccc(Sc2nc3ccccc3[nH]2)o1 (single isomer, unassigned; (+))",IC50,HeLa [1],26 nM
"O=C1CCCC2=C1C(c1ccc(Sc3nc4ccccc4[nH]3)o1)c1c[nH]cc1N2 (single isomer, unassigned; (+))",IC50,Aurora kinase B,127 nM
same,IC50,HeLa [1],3700 nM
CCOC(=O)c1[nH]cc2c1NC1=C(C(=O)CCC1)C2c1ccc(Sc2nc3ccc(F)c(F)c3[nH]2)o1 (racemic),IC50,Cytochrome P450 3A4 [4],34000 nM
same,remaining at 5 µM,in vitro [2],66%
same,remaining at 5 µM,in vitro [3],66%
O=C1CNCC2=C1C(c1cccc(Oc3ccc(Cl)c(Cl)c3)c1)c1c[nH]nc1N2 (racemic),IC50,HeLa [1],> 10000 nM
CCOC(=O)c1[nH]cc2c1NC1=C(C(=O)CCC1)C2c1cnc(Sc2nc3ccccc3[nH]2)s1 (racemic),IC50,HeLa [1],> 10000 nM
CCOC(=O)c1[nH]nc2c1NC1=C(C(=O)CCC1)C2c1ccc(Sc2nc3ccccc3[nH]2)o1 (racemic),IC50,Aurora kinase B,33 nM
same,IC50,HeLa [1],7700 nM
CCOC(=O)c1[nH]cc2c1NC1=C(C(=O)CCC1)C2c1ccc(Sc2nc3cccc(F)c3[nH]2)o1 (racemic),IC50,Aurora kinase B,6 nM
same,IC50,Cytochrome P450 3A4 [4],4500 nM
same,remaining at 5 µM,in vitro [2],47%
same,remaining at 5 µM,in vitro [3],58%
CCOC(=O)c1[nH]cc2c1NC1=C(C(=O)CCC1)C2c1ccc(Sc2nc3cccnc3[nH]2)o1 (racemic),remaining at 5 µM,in vitro [2],49%
same,remaining at 5 µM,in vitro [3],49%
COC(=O)c1csc2c1NC1=C(C(=O)CCC1)C2c1ccc(Sc2nc3ccccc3[nH]2)o1 (racemic),IC50,Aurora kinase B,5 nM
same,IC50,HeLa [1],127 nM
CCOC(=O)c1[nH]cc2c1NC1=C(C(=O)CNC1)C2c1ccc(Sc2nc3ccccc3[nH]2)o1 (racemic),IC50,Aurora kinase B,2 nM
same,IC50,Cytochrome P450 3A4 [4],170 nM
same,remaining at 5 µM,in vitro [2],66%
same,remaining at 5 µM,in vitro [3],60%
CCOC(=O)c1[nH]cc2c1NC1=C(C(=O)CCC1)C2c1ccc(Sc2nc3cc(F)c(F)cc3[nH]2)o1 (racemic),IC50,Cytochrome P450 3A4 [4],8400 nM
same,remaining at 5 µM,in vitro [2],58%
same,remaining at 5 µM,in vitro [3],55%
CCOC(=O)c1[nH]cc2c1NC1=C(C(=O)CCC1)C2c1cccc(Sc2nc3ccccc3[nH]2)n1 (racemic),IC50,Aurora kinase B,7 nM
same,IC50,HeLa [1],4400 nM
CCOC(=O)c1[nH]cc2c1NC1=C(C(=O)CCC1)C2c1ccnc(Sc2nc3ccccc3[nH]2)c1 (racemic),IC50,Aurora kinase B,1100 nM
same,IC50,HeLa [1],> 10000 nM
CCOC(=O)c1[nH]cc2c1NC1=C(C(=O)CN(C(=O)CN)C1)[C@H]2c1ccc(Sc2nc3c(F)cccc3[nH]2)o1,IC50,Aurora kinase B,2 nM
same,remaining at 5 µM,in vitro [2],< 40%
same,remaining at 5 µM,in vitro [3],17%
O=C1CNCC2=C1C(c1ccc(Sc3nc4ccccc4[nH]3)o1)c1c[nH]nc1N2 (racemic),IC50,HeLa [1],> 10000 nM
CCOC(=O)c1[nH]cc2c1NC1=C(C(=O)CCC1)C2c1ccc(Sc2nc3c(F)c(F)c(F)cc3[nH]2)o1 (racemic),remaining at 5 µM,in vitro [2],46%
same,remaining at 5 µM,in vitro [3],22%
O=C1CNCC2=C1C(c1cccc(Oc3ccccc3)c1)c1c[nH]nc1N2 (racemic),IC50,HeLa [1],> 10000 nM
Nc1nc(O)c2c(n1)NC1=C(C(=O)CCC1)C2c1ccc(Sc2nc3ccccc3[nH]2)o1 (racemic),IC50,HeLa [1],> 10000 nM
CCOC(=O)c1[nH]cc2c1NC1=C(C(=O)CCC1)C2c1ccc(Sc2nc3c(O)cccc3[nH]2)o1 (racemic),IC50,Aurora kinase B,8 nM
same,IC50,Cytochrome P450 3A4 [4],490 nM
same,remaining at 5 µM,in vitro [2],40%
same,remaining at 5 µM,in vitro [3],37%
COc1ccc(Oc2cccc(C3C4=C(CNCC4=O)Nc4n[nH]cc43)c2)cc1 (racemic),IC50,HeLa [1],> 10000 nM
CCOC(=O)c1[nH]cc2c1NC1=C(C(=O)CCC1)C2c1ccc(Sc2nc3c(F)cc(F)cc3[nH]2)o1 (stereo not given),IC50,Aurora kinase B,4 nM
same,IC50,Cytochrome P450 3A4 [4],1000 nM
same,remaining at 5 µM,in vitro [2],66%
same,remaining at 5 µM,in vitro [3],36%
CCOC(=O)c1[nH]cc2c1NC1=C(C(=O)CCC1)C2c1ccc(Sc2nc3cc(Cl)ccc3[nH]2)o1 (racemic),remaining at 5 µM,in vitro [2],90%
same,remaining at 5 µM,in vitro [3],88%
"O=C1CCCC2=C1C(c1ccc(Sc3nc4ccccc4[nH]3)o1)c1c[nH]c(C(=O)O)c1N2 (single isomer, unassigned; (+))",IC50,Aurora kinase B,16 nM
same,IC50,HeLa [1],8750 nM
O=C1CCCC2=C1C(c1ccc(Sc3nc4ccccc4[nH]3)o1)c1n[nH]cc1N2 (racemic),IC50,Aurora kinase B,500 nM
same,IC50,HeLa [1],> 10000 nM
CCOC(=O)c1[nH]cc2c1NC1=C(C(=O)CN(Cc3ccccc3)C1)C2c1ccc(Sc2nc3ccccc3[nH]2)o1 (racemic),IC50,Aurora kinase B,8 nM
CCOC(=O)c1[nH]cc2c1NC1=C(C(=O)CCC1)C2c1cccc(Sc2nc3ccccc3[nH]2)c1 (racemic),IC50,Aurora kinase B,7 nM
same,IC50,HeLa [1],9700 nM
CCOC(=O)c1[nH]cc2c1NC1=C(C(=O)CCC1)C2c1ccc(Sc2nc3c(N)cccc3[nH]2)o1 (racemic),IC50,Aurora kinase B,25 nM
same,remaining at 5 µM,in vitro [2],23%
same,remaining at 5 µM,in vitro [3],35%
CCOC(=O)c1[nH]cc2c1NC1=C(C(=O)CNC1)C2c1ccc(Sc2nc3cccc(Cl)c3[nH]2)o1 (racemic),IC50,Aurora kinase B,5 nM
O=C1CNCC2=C1C(c1cccc(Oc3cc(Cl)cc(Cl)c3)c1)c1c[nH]nc1N2 (racemic),IC50,HeLa [1],> 10000 nM
CCOC(=O)c1[nH]cc2c1NC1=C(C(=O)CNC1)C2c1ccc(Sc2nc3c(F)cccc3[nH]2)o1 (racemic),IC50,Aurora kinase B,3 nM
O=C1CCCC2=C1C(c1ccc(Sc3nc4ccccc4[nH]3)o1)c1cn[nH]c1N2 (racemic),IC50,Aurora kinase B,5 nM
same,IC50,HeLa [1],300 nM
CCOC(=O)c1[nH]cc2c1NC1=C(C(=O)CN(C(=O)OC(C)(C)C)C1)C2c1ccc(Sc2nc3ccccc3[nH]2)o1 (racemic),IC50,Aurora kinase B,26 nM
CCOC(=O)c1[nH]cc2c1NC1=C(C(=O)CCC1)C2c1ccc(Sc2nc3ccccc3[nH]2)o1 (racemic),IC50,HeLa [5],15 nM
CCOC(=O)c1[nH]cc2c1NC1=C(C(=O)CN(C(=O)CN)C1)[C@H]2c1ccc(Sc2nc3ccccc3[nH]2)o1,IC50,Aurora kinase B,4 nM
same,IC50,Cytochrome P450 3A4 [4],500 nM
same,remaining at 5 µM,in vitro [2],65%
same,remaining at 5 µM,in vitro [3],30%
O=C1CNCC2=C1C(c1cccc(Oc3ccc(Cl)cc3)c1)c1c[nH]nc1N2 (racemic),IC50,HeLa [1],> 10000 nM
CCOC(=O)c1[nH]cc2c1NC1=C(C(=O)CCC1)C2c1ccc(Sc2nc3cc(F)ccc3[nH]2)o1 (racemic),IC50,Cytochrome P450 3A4 [4],12000 nM
same,remaining at 5 µM,in vitro [2],73%
same,remaining at 5 µM,in vitro [3],77%
NC(=O)c1[nH]nc2c1NC1=C(C(=O)CCC1)C2c1ccc(Sc2nc3ccccc3[nH]2)o1 (racemic),IC50,Aurora kinase B,19 nM
same,IC50,HeLa [1],> 10000 nM
"CCOC(=O)c1[nH]cc2c1NC1=C(C(=O)CCC1)C2c1ccc(Sc2nc3ccccc3[nH]2)o1 (single isomer, unassigned; (-))",IC50,HeLa [5],7000 nM
CCOC(=O)c1[nH]cc2c1NC1=C(C(=O)CCC1)[C@H]2c1cccc(Oc2nc3ccccc3[nH]2)c1,IC50,Aurora kinase B,1 nM
same,IC50,Aurora kinase C,3 nM
same,Ki,Cytochrome P450 3A4 [6],990 nM
same,IC50,HeLa [1],67 nM
same,IC50,PBMC,> 10000 nM
same,bioavailability,in vivo [7],64%
same,half-life,in vivo [8],2.4 h
same,Vd,in vivo [9],0.14 L/kg
same,remaining at 5 µM,in vitro [2],53%
same,remaining at 5 µM,in vitro [3],32%
same,Papp,in vitro [10],6 ×10⁻⁶ cm/s
same,concentration at 8 h,[11],63 µM
same,Activity,[12],59%
same,Activity,[13],19%
same,inhibition in vivo at 25 mg/kg,[14],19%
same,inhibition in vivo at 50 mg/kg,[15],47%
same,inhibition in vivo at 25 mg/kg/day,[16],16%
CCOC(=O)c1[nH]cc2c1NC1=C(C(=O)CCC1)C2c1ccc(Sc2nc3cccc(Cl)c3[nH]2)o1 (racemic),IC50,Aurora kinase B,7 nM
same,IC50,Cytochrome P450 3A4 [4],50 nM
same,remaining at 5 µM,in vitro [2],68%
same,remaining at 5 µM,in vitro [3],85%
CCOC(=O)c1[nH]cc2c1NC1=C(C(=O)CCC1)C2c1cc(Sc2nc3ccccc3[nH]2)cs1 (racemic),IC50,Aurora kinase B,2 nM
same,IC50,HeLa [1],1500 nM
"CCOC(=O)c1[nH]cc2c1NC1=C(C(=O)CCC1)C2c1ccc(Sc2nc3ccccc3[nH]2)o1 (single isomer, unassigned; (+))",IC50,Cytochrome P450 3A4 [4],190 nM
same,IC50,HeLa [5],16 nM
same,remaining at 5 µM,in vitro [2],69%
same,remaining at 5 µM,in vitro [3],83%
